Experimental data: PubChem BioAssay AID330 (DTP/NCI, 2004)
Values joined by “and” are separate entries in the source; they are usually repeats but may differ in a detail not shown here. Identical values can stand only once. Inconclusive results and toxic doses are left out. Peptide text beside a SMILES is read from it. * marks the point of attachment. Boc = CC(C)(C)OC(=O)*; NHNH2 = NN*

Test system: P388 leukemia ip, CD2F1 mice, survival T/C
Assay: NCI In Vivo Anticancer Drug Screen. Data for tumor model P388 Leukemia (intraperitoneal) in CD2F1 (CDF1) mice
Conditions: endpoint: median survival time, higher = longer survival
Outline: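 Mice carrying the transplanted tumor received test compound or vehicle. Survival was recorded in each group, and the value is the treated-group measurement divided by that of the vehicle-treated control group.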

[1] = dose: 50.0 mg/kg/injection, schedule: Q01DX009 (ip), vehicle: saline with Tween-80
[2] = dose: 100.0 mg/kg/injection, schedule: Q01DX009 (ip), vehicle: saline with Tween-80
[3] = dose: 200.0 mg/kg/injection, schedule: Q01DX009 (ip), vehicle: saline with Tween-80
[4] = dose: 50.0 mg/kg/injection, schedule: Q01DX009 (ip), vehicle: other
[5] = dose: 100.0 mg/kg/injection, schedule: Q01DX009 (ip), vehicle: other

`CC(N)c1ccccc1` (stereo not given) (tested in a mixture with another compound) was tested, and the T/C [1] was 104 % of control, the T/C [2] was 99 % of control and the T/C [3] was 99 % of control.

In the case of `CCCCCC(N)C(C)=O` (stereo not given), the T/C (dose: 12.5 mg/kg/injection, schedule: Q01DX009 (ip), vehicle: saline) was 110 % of control, the T/C (dose: 25.0 mg/kg/injection, schedule: Q01DX009 (ip), vehicle: saline) was 106 % of control and the T/C [1] was 106 % of control and 97 % of control. The T/C (dose: 50.0 mg/kg/injection, schedule: Q01DX009 (ip), vehicle: saline) was 105 % of control, the T/C [3] was 187 % of control and the T/C (dose: 400.0 mg/kg/injection, schedule: Q01DX009 (ip), vehicle: saline with Tween-80) was 187 % of control.

`CC(C)(CO)NC(=O)c1ccccc1Br` was tested, and the T/C [1] was 100 % of control, the T/C [2] was 100 % of control and the T/C [3] was 99 % of control.

`C=C(C)C(=O)OC1CC2OC2(C)CC(OC(=O)C(=C)C)C2C(=C)C(=O)OC2/C=C\1C` (stereo not given) was tested, and the T/C (dose: 5.0 mg/kg/injection, schedule: Q01DX009 (ip), vehicle: saline with Tween-80) was 90 % of control, the T/C (dose: 10.0 mg/kg/injection, schedule: Q01DX009 (ip), vehicle: saline with Tween-80) was 90 % of control and the T/C (dose: 20.0 mg/kg/injection, schedule: Q01DX009 (ip), vehicle: saline with Tween-80) was 100 % of control. The T/C (dose: 40.0 mg/kg/injection, schedule: Q01DX009 (ip), vehicle: saline with Tween-80) was 86 % of control.

`O=NNc1cncc(Cl)n1` was tested, and the T/C (dose: 3.12 mg/kg/injection, schedule: Q01DX009 (ip), vehicle: water) was 100 % of control, the T/C (dose: 6.25 mg/kg/injection, schedule: Q01DX009 (ip), vehicle: water) was 97 % of control and the T/C (dose: 12.5 mg/kg/injection, schedule: Q01DX009 (ip), vehicle: water) was 105 % of control. The T/C (dose: 25.0 mg/kg/injection, schedule: Q01DX009 (ip), vehicle: water) was 99 % of control and the T/C (dose: 50.0 mg/kg/injection, schedule: Q01DX009 (ip), vehicle: water) was 92 % of control and 97 % of control.

For `CC(C)CC(NC(=O)C(Cc1c[nH]c2ccccc12)NC(=O)OC(C)(C)C)C(=O)NN` (stereo not drawn) (Boc-Trp-Leu-NHNH2; configuration not given here), the T/C (dose: 12.5 mg/kg/injection, schedule: Q01DX009 (ip), vehicle: other) was 100 % of control, the T/C (dose: 25.0 mg/kg/injection, schedule: Q01DX009 (ip), vehicle: other) was 94 % of control and the T/C [4] was 97 % of control. For the same compound, the T/C [5] was 105 % of control and 110 % of control.

In the case of `c1ccc2c(c1)/C(=N/c1nccs1)N/C2=N\c1nccs1`, the T/C (dose: 100.0 mg/kg/injection, schedule: Q04DX003 (ip), vehicle: saline with Tween-80) was 97 % of control, the T/C (dose: 200.0 mg/kg/injection, schedule: Q04DX003 (ip), vehicle: saline with Tween-80) was 93 % of control and the T/C (dose: 400.0 mg/kg/injection, schedule: Q04DX003 (ip), vehicle: saline with Tween-80) was 91 % of control.

For `COc1ccc2c(C(=O)c3ccccc3)c3[n+](cc2c1OC)CCc1cc2c(cc1-3)OCO2`, the T/C (dose: 6.25 mg/kg/injection, schedule: Q01DX005 (ip), vehicle: Klucel (hydroxypropylcellulose) (HPC)) was 103 % of control and the T/C (dose: 12.5 mg/kg/injection, schedule: Q01DX005 (ip), vehicle: Klucel (hydroxypropylcellulose) (HPC)) was 103 % of control.

With `Nc1nc(N)c(N2CCN(Cc3ccccc3)CC2)c(Cl)n1` the T/C (dose: 15.0 mg/kg/injection, schedule: Q01DX005 (ip), vehicle: Klucel (hydroxypropylcellulose) (HPC)) was 101 % of control, the T/C (dose: 30.0 mg/kg/injection, schedule: Q01DX005 (ip), vehicle: Klucel (hydroxypropylcellulose) (HPC)) was 99 % of control and the T/C (dose: 60.0 mg/kg/injection, schedule: Q01DX005 (ip), vehicle: Klucel (hydroxypropylcellulose) (HPC)) was 99 % of control and 104 % of control.

With `CC1=NN(C(=O)c2ccncc2)C(=O)C1N=Nc1ccc(S(=O)(=O)Nc2ncccn2)cc1` (stereo not given) the T/C [1] was 95 % of control, the T/C [2] was 91 % of control and the T/C [3] was 92 % of control.

`O=C(NNc1c(F)c(F)c(C(F)(F)F)c(F)c1F)c1ccccc1` was tested, and the T/C (dose: 50.0 mg/kg/injection, schedule: Q01DX005 (ip), vehicle: Klucel (hydroxypropylcellulose) (HPC)) was 98 % of control, the T/C (dose: 100.0 mg/kg/injection, schedule: Q01DX005 (ip), vehicle: Klucel (hydroxypropylcellulose) (HPC)) was 100 % of control and the T/C (dose: 200.0 mg/kg/injection, schedule: Q01DX005 (ip), vehicle: Klucel (hydroxypropylcellulose) (HPC)) was 91 % of control.

`[Cl][Sn]([O][Sn]([Cl])([c]1ccccc1)[CH]1CCCCC1)([c]1ccccc1)[CH]1CCCCC1` (stereo not given) was tested, and the T/C (dose: 0.19 mg/kg/injection, schedule: Q01DX005 (ip), vehicle: saline) was 100 % of control, the T/C (dose: 0.39 mg/kg/injection, schedule: Q01DX005 (ip), vehicle: saline) was 105 % of control and the T/C (dose: 0.79 mg/kg/injection, schedule: Q01DX005 (ip), vehicle: saline) was 117 % of control.

For `c1ccc2ccccc2c1`, the T/C [4] was 100 % of control, the T/C [5] was 104 % of control and the T/C (dose: 200.0 mg/kg/injection, schedule: Q01DX009 (ip), vehicle: other) was 107 % of control.
